1 compound from US20030161893A1, “PTPase inhibitors and methods of using the same” (priority 2001, published 2003) can be followed below.

One experiment deals with T1, PTP1B (Homo sapiens, UniProt P18031).
T1 construct: purchased Upstate Biotechnology Inc. (Lake Placid, N.Y.)
Kind of experiment: In vitro PTPase assay, GST/PTP1B fusion protein. Format: biochemical. Particulars: 0.1 to 1 μg/ml. As to the method:
In vitro PTPase activities were measured using the commercial protein tyrosine phosphatase assay kit (Upstate Biotechnology, Inc. (“UBI”)) following established procedure known to one of skill in the art. This assay measures the in vitro dephosphorylation of a synthetic phosphotyrosine peptide of the sequence Arg-Arg-Leu-Ile-Glu-Asp-Ala-Gle-Tyr-Ala-Ala-Arg-Gly, wherein the tyrosine is phosphorylated (SEQ ID NO: 3). Briefly, 0.01 μg of GST/PTPase fusion proteins was incubated in 50 μl of Tris buffer (10 mM Tris, pH 7.4) containing different concentrations of inhibitors or chemicals (0-1,000 μg/ml) at 22° C. for 10 minutes, followed by addition of 0.2 mM of the phosphotyrosine peptide and incubation at 22° C. for 18 hours. 100 μl of Malachite Green solution was added and incubated for 5 minutes, and the absorbance at 660 nm was measured after 5 minutes.

The subject of a further experiment is Tyk2/Stat3. Kind of experiment: GM-CSF-induced Tyk2/Stat3 tyrosine phosphorylation in SHP-1-deficient cells. Format: cell-based.
The next experiment has as its system NB4 cells. Kind of experiment: NB4 cell differentiation (NBT reduction, CD11b). Format: cell-based, human. As to the method:
Differentiation of AML cell lines was assessed by their ability to produce superoxide as measured by reduction of NBT to formazan and by analysis of expression of CD11b surface marker by flow cytometry. For NBT reduction, each cell suspension was mixed with an equal volume of solution containing 1 mg/ml of NBT (Sigma) and 2.5 μg/ml of TPA for 30 minutes at 37° C. After incubation, cells containing the purple formazan deposits and cells devoid of NBT-reducing activity (white cells) in each sample were determined by counting 200 cells under microscope. Data is expressed as a percentage based on the following ratio: purple cells/purple+white cells. For analysis of cell surface antigens, cells were exposed to phycoerythrin (PE)-conjugated murine anti-human CD11b (DAKO Corp., Carpinteria, Calif.). Analysis of fluorescence was performed on a FACScan flow cytometer (Beckton Dickinson, Mountain View, Calif.).

For another experiment, the system named is U266 cells. Put plainly: Cell proliferation assay (MTT), U266 multiple myeloma cells. Format: cell-based, human. Particulars: day 6. Here is the method:
(§1) For cell proliferation assays, cells were grown in 10% FCS culture medium containing various amounts of IFNs and/or sodium stibogluconate in 96 well plates and cultured at 37° C. for 3 or 6 days as indicated. The numbers of viable cells in proliferation assays were determined by MTT assays as described in Phatak et al., J. Immunol. 167, 3391 (2001).

The next experiment deals with DS cells. Put plainly: Cell proliferation assay (MTT), DS lymphoma cells. Particulars: day 3; IFN-alpha 1,000 u/ml. Format: cell-based, human. As to the method:
as §1

A further experiment addresses T2, Flag-PRL-1 (Homo sapiens, UniProt Q93096).
T2 construct: expressed in transfected cells
Put plainly: Immunocomplex PTPase assay, Flag-PRL-1 NIH3T3 transfectants. Format: cell-based. The following applies: cells treated 5 min. Here is the method:
(§2) Immunocomplex PTPase assays were performed to assess the effects of sodium stibogluconate on intracellular PTPases. Cells were untreated or treated with sodium stibogluconate for 5 minutes, washed with fresh medium and then lysed in cold lysis buffer (50 mM Tris, pH 7.4; 150 mM NaCl; 1% NP40; 2 mM PMSF; 20 ,g/ml of Aprotinin). The lysates were incubated with an anti-Flag antibody in immunoprecipitation assays. The immunocomplexes were collected with protein G sepharose beads (Pharmacia) and washed in cold lysis buffer for 4 times. […] 100 μL of malachite green solution (UBI) was added to each reaction prior to measurement of OD660 to quantify the amounts of free phosphate cleaved by the PTPases from the peptide substrate (Pathak et al., J. Imumol. 167, 3391 (2001)). The remaining 10% contents of individual samples were analyzed by SDS-PAGE/Western blotting to quantify the relative amounts of the phosphatase proteins. […]
(§3) The effects of sodium stibogluconate on intracellular PTPases were assessed using NIH3T3 or WM9 transfectants. […]

Another experiment has as its target T3, Flag-PRL-3 (Homo sapiens, UniProt O75365).
T3 construct: expressed in transfected cells
Put plainly: Immunocomplex PTPase assay, Flag-PRL-3 NIH3T3 transfectants. The following applies: cells treated 5 min. Format: cell-based. As to the method:
as §2, §3

For another experiment, the system named is SK-N-SH cells. Put plainly: Cell growth assay (MTT), SK-N-SH neuroblastoma cells. Format: cell-based, human. The following applies: 100 μg/ml, day 6. As to the method:
NIH3T3 (Yi, et al., Blood 85, 87 (1995)), WM9 (Forsberg, et al., Proc. Nat. Acad Sci. USA 90, 393 (1993)), DU145 (Mickey, et al., Cancer Res. 37, 4049 (1977)), LoVo (Drewinko, et al., Cancer Res. 36, 467 (1976)), HEY (Buick, et al., Cancer Res. 45, 3668 (1985)), U251 (Yoshida, et al., Cancer 50, 410 (1982)), A549 (Giard, et al., J. Natl. Cancer Inst. 51, 1417 (1973)) and SK-N-SH (Helson, et al., Cancer Res. 35, 2594 (1975)) cell lines have been described and were cultured in RPMI 1640 supplemented with 10% fetal calf serum (FCS). For measurement of sodium stibogluconate effects on cell growth in vitro, cells were cultured in the absence (−) or presence (+) of various amounts of sodium stibogluconate for 6 days with viable cells quantified by MTT assays (Mosmann, J. Imunol. Methods 65, 55 (1983)). Percentages of growth inhibition by sodium stibogluconate were calculated (+/−×%).

T2 sequence (Q93096 whole entry): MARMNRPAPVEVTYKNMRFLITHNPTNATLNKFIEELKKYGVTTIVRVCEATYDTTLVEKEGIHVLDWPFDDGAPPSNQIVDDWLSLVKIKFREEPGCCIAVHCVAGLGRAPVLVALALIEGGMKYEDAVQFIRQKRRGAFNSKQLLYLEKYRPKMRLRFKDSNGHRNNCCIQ
T3 sequence (O75365 whole entry): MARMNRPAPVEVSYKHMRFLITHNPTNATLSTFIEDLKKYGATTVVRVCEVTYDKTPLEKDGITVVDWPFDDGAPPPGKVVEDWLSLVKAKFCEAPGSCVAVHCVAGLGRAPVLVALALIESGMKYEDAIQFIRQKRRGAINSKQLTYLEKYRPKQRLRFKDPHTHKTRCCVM
T1 sequence (P18031 whole entry, species assumed): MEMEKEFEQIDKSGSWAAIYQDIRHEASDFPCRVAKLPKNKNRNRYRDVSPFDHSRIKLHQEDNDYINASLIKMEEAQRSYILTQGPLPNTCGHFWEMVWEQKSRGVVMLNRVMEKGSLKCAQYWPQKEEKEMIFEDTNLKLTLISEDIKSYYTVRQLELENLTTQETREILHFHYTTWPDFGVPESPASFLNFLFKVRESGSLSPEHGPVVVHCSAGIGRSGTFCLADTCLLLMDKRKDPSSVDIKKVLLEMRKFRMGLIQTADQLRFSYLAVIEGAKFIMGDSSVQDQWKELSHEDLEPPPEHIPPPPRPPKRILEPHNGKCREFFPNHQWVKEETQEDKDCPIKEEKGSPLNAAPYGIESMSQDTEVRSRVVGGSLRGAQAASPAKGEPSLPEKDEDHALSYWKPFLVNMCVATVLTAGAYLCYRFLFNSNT

`O.O.O.O.O.O.O.O.O.O=C([O-])[C@@H]1[O][Sb]2([O-])([O][Sb]34([OH])[O][C@H]([C@H](O)CO)[C@H]([O]3)[C@H](C(=O)[O-])[O]4)[O][C@H]([C@H](O)CO)[C@@H]1[O]2.[Na+].[Na+].[Na+]` [sodium stibogluconate]: the “inhibition of PTP1B activity” value on PTP1B is reported as “only modestly effective”. Further, in the experiment with Tyk2/Stat3, the “GM-CSF-induced Tyk2/Stat3 tyrosine phosphorylation” value is on record as “augmented”. Also, the “interaction with ATRA in differentiation induction” value with NB4 cells is listed as “did not synergize with ATRA”. Also, in the experiment on NB4 cells (6 days with drug (10 or 100 μg/ml), washed, 6 days without), the “reversibility of induced NB4 differentiation after drug removal” value is “not reversed”. In addition, in the experiment with U266 cells, the “IFN-alpha-induced growth inhibition of U266 cells in presence of drug” value was “augmentation of IFN-alpha-induced cell growth inhibition” and the “growth inhibition of U266 cells by the drug by itself” value is “substantial growth inhibition activity”. Further, the “activity against DS cells” value with DS cells is recorded as “modest activity”. The “PTPase activity of anti-Flag immunocomplexes, Flag-PRL-1” value at Flag-PRL-1 was “little PTPase activities”. For the same compound, at Flag-PRL-3, the “PTPase activity of anti-Flag immunocomplexes, Flag-PRL-3” value was “lack of PTPase activity”. Also, in the experiment on SK-N-SH cells, the “cell killing, SK-N-SH” value is recorded as “near-complete cell killing”.
